We go through 19 molecules from patent US20120088662A1, “FUNGICIDAL MIXTURES” (BASF SE, priority 2009, published 2012).

Test [1] has as its system Pyricularia oryzae. The test is classed as cell-based. The conditions noted are these: alone.
Test [2] deals with Septoria tritici. The experiment in a line: Use Example M4: activity against Septoria leaf spot pathogen in the microtiter test (Septtr). The test is classed as cell-based. The conditions noted are these: alone.
The test system of test [3] is Pyrenophora teres. In words: Use Example M5: activity against Pyrenophora teres in the microtiter test (Pymte). The conditions noted are these: alone. The test is classed as cell-based.
Test [4] relates to Phytophthora infestans. The test is classed as in vivo. The settings on record: alone, untreated control 86 % infection.
Test [5] concerns Phakopsora pachyrhizi. The experiment in a line: Use Example G3: curative activity against soybean rust (Phakpa K4). The conditions noted are these: alone, untreated control 76 % infection. The test is classed as in vivo. On the procedure:
(§1) The active compounds were prepared separately or jointly as a stock solution with 25 mg of active compound which was made up to 10 ml using a mixture of acetone and/or DMSO and the emulsifier Wettol EM 31 (wetting agent having emulsifying and dispersing action based on ethoxylated alkylphenols) in a volume ratio of solvent:emulsifier of 99:1. The mixture was then made up with water to 100 ml. This stock solution was diluted with the solvent/emulsifier/water mixture described to give the active compound concentration stated below. Alternatively, the active compounds were used as a commercial finished formulation and diluted with water to the stated active compound concentration.
(§2) The visually determined values for the percentage of infected leaf area were initially converted into a mean value and then converted into efficancies in % of the untreated control. An efficacy of 0 means the same degree of infection as in the untreated control, an efficacy of 100 means 0% infection.
Leaves of potted soybean seedlings were inoculated with a spore suspension of soybean rust (Phakpsora pachyrhizi). The pots were then placed in a chamber of high atmospheric humidity (90 to 95%) and 20 to 24° C. for 24 hours. During this time, the spores germinated and the germ tubes penetrated into the leaf tissue. The infected plants were then cultivated further in a greenhouse at temperatures between 23 and 27° C. and 60 to 80% relative atmospheric humidity. After three days, the plants were sprayed to runoff point with the active compound solution described above at the active compound concentration stated below. After the spray coating had dried on, the test plants were cultivated in a greenhouse at temperatures between 23 and 27° C. and 60 to 80% relative atmospheric humidity for a further 10 days. The extent of the rust fungus development on the leaves was then determined visually in % infection.

Test [6] deals with Puccinia recondita. In words: Use Example G4: protective activity against brown rust of wheat (Puccrt P1). The test is classed as in vivo. The settings on record: alone, untreated control 79 % infection. On the procedure: as §1, §2
Leaves of potted wheat seedlings were sprayed to runoff point with an aqueous suspension having the active compound concentration stated below. The next day, the treated plants were inoculated with a spore suspension of brown rust of wheat (Puccinia recondita). The plants were then placed in a chamber of high atmospheric humidity (90 to 95%) at 20 to 24° C. for 24 hours. During this time, the spores germinated and the germ tubes penetrated into the leaf tissue. The next day, the test plants were returned to the greenhouse and cultivated at temperatures between 20 and 24° C. and 65 to 70% relative atmospheric humidity for a further 7 days. The extent of the rust fungus development on the leaves was then determined visually.

Test [7] relates to Septoria tritici. The experiment in a line: Use Example G5: protective activity against Septoria leaf blotch of wheat (Septtr P1). The test is classed as in vivo. The conditions noted are these: alone, untreated control 83 % infection. On the procedure:
as §1, §2
(§3) Leaves of potted wheat seedlings were sprayed to runoff point with an aqueous suspension having the active compound concentration stated below. 24 hours after the spray coating had dried on, they were inoculated with an aqueous spore suspension of Septoria tritici. The test plants were then placed in a greenhouse at temperatures between 18 and 22° C. and a relative atmospheric humidity close to 100% for 4 days and then at temperatures between 18 and 22° C. and an atmospheric humidity of about 70%. After 21 days, the extent of the development of the disease was determined visually in % infection of the total leaf area.

Test [8] concerns Phytophthora infestans. The test is classed as cell-based. The settings on record: single active compound.
The test system of test [9] is Botrytis cinerea. The experiment in a line: Use Example M2: activity against gray mold pathogen in the microtiter test (Botrci). The test is classed as cell-based. The conditions noted are these: single active compound.
Test [10] relates to Septoria tritici. In words: Use Example G6: protective activity against Septoria leaf blotch of wheat (Septtr P1), % infection. The test is classed as in vivo. The settings on record: 150 ppm, protective spray, after 21 days, untreated control 60% infected. As to the method: as §1, §3
The subject of test [11] is Phakopsora pachyrhizi. The experiment in a line: Use Example G7: curative activity against soybean rust (Phakpa K3), % infection. The test is classed as in vivo. The settings on record: 150 ppm, curative spray two days after inoculation, further 10 days, untreated control 80% infected. On the procedure:
as §1
Leaves of potted soybean seedlings were inoculated with a spore suspension of soybean rust (Phakpsora pachyrhizi). The pots were then placed in a chamber of high atmospheric humidity (90 to 95%) and 20 to 24° C. for 24 hours. During this time, the spores germinated and the germ tubes penetrated into the leaf tissue. The infected plants were then cultivated further in a greenhouse at temperatures between 23 and 27° C. and 60 to 80% relative atmospheric humidity. […] The extent of the rust fungus development on the leaves was then determined visually in % infection.

Test [12] deals with Septoria tritici. The experiment in a line: Comparison No. C1: activity against Septoria leaf blotch pathogen in the microtiter test (Septtr). The settings on record: relative growth, active compound-free control = 100%.
Description: An aqueous malt-based spore suspension of Septoria tritici was then added. The plates were placed in a water vapor-saturated chamber at a temperature of 18° C. Using an absorption photometer, the MTPs were measured at 405 nm on day 7 after the innoculation.
Test [13] deals with Botrytis cinerea. In words: Use Example G1: gray mold on bell pepper leaves, protective application (Botrci P1). The test is classed as in vivo. The settings on record: 1 ppm, alone; untreated control 86 % infection. On the procedure:
as §1, §2
Bell pepper seedlings were after 2-3 leaves were well developed, sprayed to runoff point with an aqueous suspension having the active compound concentration stated below. The next day, the treated plants were inoculated with a spore suspension of Botrytis cinerea in a 2% biomalt solution. […] After 5 days, the extent of the fungal infection on the leaves could be determined visually in %.

SMILES strings stand for the structures. Read-outs that look alike come from different tables or passages of the source.

Consider `Fc1ccc([C@]2(Cn3cncn3)O[C@H]2c2ccccc2Cl)cc1` (racemic) [epoxiconazole], for which the Observed effect in test [1] (ternary table, 0.016 ppm) is 0; in test [2] (0.004 ppm) it was 6; in [2] (0.016 ppm), 22; in test [3] (0.004 ppm), 0%; in test [3] (0.016 ppm), 0%; in test [4] (1 ppm) it was 1%. In addition, the Observed effect in test [5] (0.063 ppm) was found to be 63%; in [6] (0.016 ppm), 0%; in [7] (1 ppm) it was 24%.

With `Fc1ccc([C@@]2(Cn3nc[nH]c3=S)O[C@H]2c2ccccc2Cl)cc1` (relative stereo) [I-1, trans-2-[3-(2-chlorophenyl)-2-(4-fluorophenyl)oxiranylmethyl]-2,4-dihydro-[1,2,4]triazole-3-thione], the Observed effect in test [1] (16 ppm) stood at 3; in [3] (0.004 ppm) it was 2%; in test [3] (0.016 ppm) it was 5%; in test [4] (1 ppm), 0%; in [5] (0.063 ppm), 17%; in [6] (0.016 ppm), 0%. Besides, the Observed effect in [7] (1 ppm) came out at 8%.

`CC(=O)Sc1ncnn1C[C@]1(c2ccc(F)cc2)O[C@H]1c1ccccc1Cl` (relative stereo) [I-3, trans-S-{2-[3-(2-chlorophenyl)-2-(4-fluorophenyl)oxiranylmethyl]-2H-[1,2,4]triazol-3-yl}thioacetate]: the Observed effect in test [8] (63 ppm) came to 43%; in [9] (16 ppm), 15%; in [1] (16 ppm), 8; in [1] (63 ppm), 62; in test [2] (1 ppm), 3.

On to `N#CSc1ncnn1C[C@]1(c2ccc(F)cc2)O[C@H]1c1ccccc1Cl` (relative stereo) [I-6, trans-1-[3-(2-chlorophenyl)-2-(4-fluorophenyl)oxiranylmethyl]-5-thiocyanato-1H-[1,2,4]triazole], for which the “infection (% infection of the total leaf area)” value in [10] worked out at 0%. In addition, in [11], the “infection (rust fungus development on the leaves, % infection)” value was 0%.

The molecule `Fc1ccc([C@@]2(Cn3ncnc3S)O[C@H]2c2ccccc2F)cc1` (relative stereo) [I-8, trans-2-[2-(4-fluorophenyl)-3-(2-fluorophenyl)oxiranylmethyl]-2H-[1,2,4]triazole-3-thiole] showed an Observed effect in test [9] (63 ppm) of 24%.

Regarding `[Na+].[S-]c1ncnn1C[C@]1(c2ccccc2Cl)O[C@H]1c1ccccc1Cl` (relative stereo) [I-10, sodium 2-[trans-2,3-bis-(2-chlorophenyl)oxiranylmethyl]-2H-[1,2,4]triazole-3-thiolate], the results for the Observed effect in test [8] (16 ppm) and in test [1] (16 ppm) were 30% and 35, respectively.

`S=c1[nH]cnn1C[C@]1(c2ccccc2)O[C@H]1c1ccccc1Cl` (relative stereo) [I-12, 2-[trans-3-(2-chlorophenyl)-2-phenyloxiranylmethyl]-2,4-dihydro-[1,2,4]triazole-3-thione]: the Observed effect in [1] (16 ppm) is given as 7; in test [1] (63 ppm) it was 16.

For the molecule `Fc1ccccc1[C@@]1(Cn2nc[nH]c2=S)O[C@H]1c1ccccc1Cl` (relative stereo) [I-14, 2-[trans-3-(2-chlorophenyl)-2-(2-fluorophenyl)oxiranylmethyl]-2,4-dihydro-[1,2,4]triazole-3-thione], the Observed effect in test [8] (16 ppm) is 26%; in test [1] (16 ppm) it was 18; in test [2] (1 ppm), 0.

As for `CCSc1ncnn1C[C@]1(c2ccc(F)cc2)O[C@H]1c1ccccc1Cl` (relative stereo) [I-18, trans-1-[3-(2-chlorophenyl)-2-(4-fluorophenyl)oxiranylmethyl]-5-ethylsulfanyl-1H-[1,2,4]triazole], the “Growth in % at 8 ppm for Septtr” value in [12] was 39%.

For `CSc1ncnn1CC1(c2ccc(F)cc2)OC1c1ccccc1Cl` (stereo not shown) [Prior art (WO 96/38440)], the “Growth in % at 8 ppm for Septtr” value in [12] is given as 65%.

`O=C(Nc1ccccc1-c1ccc(Cl)cc1)c1cccnc1Cl` [boscalid]: the Observed effect was 4% in test [8] (4 ppm); 20% in test [8] (16 ppm); 8 in test [1] (16 ppm); 0 in test [1] (ternary table, 4 ppm); 10 in test [2] (ternary table, 0.063 ppm); 0% in test [6] (0.063 ppm). In test [7] (4 ppm), this molecule returned an Observed effect of 10%.

Regarding `COC(=O)Nc1nc2ccccc2[nH]1` [carbendazim], in [3] (0.004 ppm), the Observed effect is listed as 0%.

Take `N#Cc1c(Cl)c(Cl)c(Cl)c(C#N)c1Cl` [chlorothalonil]: the Observed effect in [1] (ternary table, 0.063 ppm) is 4; in test [2] (0.063 ppm), 3; in test [2] (ternary table, 0.063 ppm), 3.

For `CNC(=O)/C(=N/OC)c1ccccc1COc1cc(C)ccc1C` [dimoxystrobin], the Observed effect in test [3] (0.004 ppm) amounted to 4%.

As to `CO/N=C(/C(=O)OC)c1ccccc1COc1ccccc1C` [kresoxim-methyl], the Observed effect in [5] (1 ppm) is reported as 39%.

For the molecule `CNC(=O)/C(=N/OC)c1ccccc1CO/N=C(C)/C(=N/OC)C(/C)=N/OC` [orysastrobin], the Observed effect was determined as 1% in test [9] (0.016 ppm); 2% in test [9] (1 ppm); 2 in [1] (ternary table, 0.016 ppm); 2 in test [2] (ternary table, 0.004 ppm).

`COC(=O)N(OC)c1ccccc1COc1ccn(-c2ccc(Cl)cc2)n1` [pyraclostrobin]: the Observed effect in test [8] (16 ppm) was found to be 16%; in test [13], 1%.

`Cc1cc(C)nc(Nc2ccccc2)n1` [pyrimethanil]: in test [1] (4 ppm), the Observed effect is 47.

As for `COC(=O)NC(=S)Nc1ccccc1NC(=S)NC(=O)OC` [thiophanate-methyl], the figures for the Observed effect in [4] (63 ppm) and in test [5] (4 ppm) were 0% and 8%, respectively.
